Measured values taken from patent US20260167656A1, “PHOSPHORAMIDATE COMPOUNDS AND USES THEREOF” (ALLORION THERAPEUTICS INC, priority 2022, published 2026).

Experiments:
[1] = tested on: non-small cell lung cancer cell line H460; test: H460 proliferation assay in the presence of 3 uM ASP9521 (AKR1C3 specific inhibitor); assay type: cell-based, human; settings: H460 cells, CellTiter-Glo, 72 hours, in the presence of 3 uM ASP9521 added 4 hours prior to compounds; read-out: CTG H460: Avg IC50 (nM) [Assay Condition: ASP9521]
Procedure, shortened: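 H460 cells pre-incubated 24 h, then exposed to compounds for 72 h at 37 °C, 5% CO2. Viability read by CellTiter-Glo. ASP9521 (3 uM, AKR1C3 inhibitor) added 4 h before compounds.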

[2] = tested on: non-small cell lung cancer cell line H460; test: In vitro human cancer cell line cytotoxicity (proliferation) assay in H460, CellTiter-Glo, 72 hours; assay type: cell-based; settings: H460 cells, DMSO condition (no AKR1C3 inhibitor), read-out: CTG H460: Avg IC50 (nM) [Assay Condition: DMSO]
Procedure, shortened: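 H460 cells were seeded at 3×10^3 per well and grown 24 h at 37 °C, 5% CO2 before compound addition from 10 mM DMSO stocks. After 72 h further incubation, viability was measured by CellTiter-Glo, and IC50 values in nM were derived from the proliferation data.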

Row | Compound | IC50 [1] | IC50 ([2]; Homo sapiens, NCI-H460, 72 h) | IC50 [2]
1 | O=[N+]([O-])c1ccc2c(c1Oc1cccc(-c3noc(C4CC4)n3)c1)CCC2OP(=O)(N1CC1)N1CC1 (stereo not shown) [Example 90] | 9470 nM | ≥ 100 nM | –
2 | Cc1ccnn1-c1cc(Oc2c([N+](=O)[O-])ccc3c2CC[C@@H]3OP(=O)(N2CC2)N2CC2)ccc1F [Example 433] | 2590 nM | < 10 nM | –
3 | CC(OP(=O)(N1CC1)N1CC1)c1cc2cc(Oc3ccc4c(c3)OC(F)(F)O4)c([N+](=O)[O-])cc2o1 (stereo not shown) [Example 546] | 4690 nM | < 10 nM | –
4 | CN(C)C(=O)c1cncc(Oc2c([N+](=O)[O-])ccc3c2CC[C@@H]3OP(=O)(N2CC2)N2CC2)c1 [Example 252] | 2640 nM | – | 10 to 50 nM
5 | O=C1c2ccc(Oc3c([N+](=O)[O-])ccc4c3CCC4OP(=O)(N3CC3)N3CC3)cc2CN1C1CC1 (stereo not shown) [Example 57] | 219 nM | – | < 10 nM
6 | O=[N+]([O-])c1ccc2c(c1Oc1cncc(OC3CC3)c1)CC[C@@H]2OP(=O)(N1CC1)N1CC1 [Example 471] | 3060 nM | – | < 10 nM
7 | O=[N+]([O-])c1cc2c(cc1Oc1ccccc1-c1ccccc1)C(OP(=O)(N1CC1)N1CC1)CC2 (stereo not shown) [Example 197] | 1760 nM | – | ≥ 100 nM
8 | O=[N+]([O-])c1ccc2c(c1Oc1ccccc1)CCC2OP(=O)(N1CC1)N1CC1 (stereo not shown) [Example 16, 5-nitro-4-phenoxy-2,3-dihydro-1H-inden-1-yl di(aziridin-1-yl)phosphinate] | 261 nM | 10 to 50 nM | –
9 | O=[N+]([O-])c1ccc2c(c1Oc1cccc(OC(F)F)c1)CC[C@H]2OP(=O)(N1CC1)N1CC1 [Example 458] | 506 nM | – | < 10 nM
10 | Cn1cc(-c2ccc(Oc3cc4c(cc3[N+](=O)[O-])CCC4OP(=O)(N3CC3)N3CC3)cc2)ccc1=O (stereo not shown) [Example 178] | 1630 nM | ≥ 100 nM | –
11 | O=[N+]([O-])c1ccc2c(c1Oc1ccc(F)c(OC3CCCC3)c1)CCC2OP(=O)(N1CC1)N1CC1 (stereo not shown) [Example 478] | 1690 nM | – | < 10 nM
12 | Cc1cccc(-c2ccc(Oc3c([N+](=O)[O-])ccc4c3CCC4OP(=O)(N3CC3)N3CC3)cc2)n1 (racemic) [Example 277] | 1530 nM | – | < 10 nM
13 | Cc1cccc(-c2cccc(Oc3c([N+](=O)[O-])ccc4c3CCC4OP(=O)(N3CC3)N3CC3)c2)n1 (stereo not shown) [Example 321] | 6690 nM | – | 10 to 50 nM
14 | CC(OP(=O)(N1C[C@H]1C)N1C[C@H]1C)c1ccc([N+](=O)[O-])c(Oc2ccc(-c3ccccc3)cc2)c1 (stereo partly shown) [Example 218] | 1370 nM | < 10 nM | –
15 | O=[N+]([O-])c1ccc2c(c1Oc1ccc(F)c(OC(F)F)c1)CCC2OP(=O)(N1CC1)N1CC1 (racemic) [Example 475] | 509 nM | – | < 10 nM
16 | O=[N+]([O-])c1ccc2c(c1Oc1ccc(-c3cccnc3)cc1)CC[C@H]2OP(=O)(N1CC1)N1CC1 [Example 272] | 3120 nM | – | 10 to 50 nM
17 | O=C(c1cccc(Oc2c([N+](=O)[O-])ccc3c2CCC3OP(=O)(N2CC2)N2CC2)c1)N1CCCCC1 (single isomer, unassigned) [Example 68] | 1160 nM | < 10 nM | –
18 | Cn1ccc2ccc(Oc3cc4c(cc3[N+](=O)[O-])CCC4OP(=O)(N3CC3)N3CC3)cc2c1=O (stereo not shown) [Example 157] | 1240 nM | – | 10 to 50 nM
19 | Cn1cc(-c2ccc(Oc3c([N+](=O)[O-])ccc4c3CCC4OP(=O)(N3CC3)N3CC3)cc2)ccc1=O (stereo not shown) [Example 60] | 1010 nM | – | ≥ 100 nM
20 | O=C1OCCN1c1ccc(Oc2cc3c(cc2[N+](=O)[O-])CCC3OP(=O)(N2CC2)N2CC2)cc1 (stereo not shown) [Example 164] | 237 nM | < 10 nM | –
21 | CC(C)COc1cccc(Oc2c([N+](=O)[O-])ccc3c2CCC3OP(=O)(N2CC2)N2CC2)c1 (stereo not shown) [Example 484] | 1990 nM | – | < 10 nM
22 | O=C(c1cc(Oc2c([N+](=O)[O-])ccc3c2CCC3OP(=O)(N2CC2)N2CC2)ccc1F)N1CCC1 (racemic) [Example 256] | 1240 nM | – | < 10 nM
23 | Cn1cc(-c2cccc(Oc3c([N+](=O)[O-])ccc4c3CCC4OP(=O)(N3CC3)N3CC3)c2)cn1 (single isomer, unassigned) [Example 76] | 1120 nM | 10 to 50 nM | –
24 | O=[N+]([O-])c1ccc2c(c1Oc1ccc(F)c(OC3CCCC3)c1)CCC2OP(=O)(N1CC1)N1CC1 (stereo not shown) [Example 479] | 1630 nM | – | < 10 nM
25 | Cn1cncc1-c1cccc(Oc2c([N+](=O)[O-])ccc3c2CC[C@@H]3OP(=O)(N2CC2)N2CC2)c1 [Example 350] | 1870 nM | < 10 nM | –
26 | O=C(c1ccc(Oc2c([N+](=O)[O-])ccc3c2CCC3OP(=O)(N2CC2)N2CC2)cc1)N1CCOCC1 (stereo not shown) [Example 35] | 472 nM | – | < 10 nM
